Source: a melting point compilation (Tetko et al.)

| SMILES | melting point [°C] |
| --- | --- |
| O=C(O)C1COCCO1 (stereo not drawn) | 59 to 61 |
| CC(C)(C)OC(=O)Nc1ccc(C(F)(F)F)cc1N | 140 to 142 |
| CCc1nc(N)no1 | 39 to 41 |
| C=CCn1cc(C(=O)O)c2ccccc21 | 159 to 161 |
| Fc1ccc2c(C3CCNCC3)c[nH]c2c1 | 225 to 227 |
| O=Cc1cnc(-c2cnccn2)s1 | 159 to 161 |
| CN(C)C=C(Br)C=O | 48 to 50 |
| Cn1cnc(S(=O)(=O)NC2CCCC2)c1Cl | 136 to 138 |
| Fc1ccc2c(c1)NCCC2 | 46 to 48 |
| O=[N+]([O-])c1ccc(Cl)cc1CBr | 61 to 63 |
| O=S1(=O)CCC(S(=O)(=O)Cl)C1 (stereo not drawn) | 114 to 116 |
| COc1cc(N)c(C(N)=O)cc1OC | 142 to 144 |
| Cc1ccc(Nc2snc(O)c2C#N)cc1 | 232 to 234 |
| c1cnn(-c2ccc(N3CCNCC3)nn2)c1 | 161 to 163 |
| Cc1sc(C(=O)O)cc1[N+](=O)[O-] | 97 to 99 |
| Cc1ccnc(Oc2cc(N)ccc2C)c1 | 76 to 78 |
| Nc1ccc(Br)cc1-c1nc(C2CC2)no1 | 123 to 125 |
| CC(C)Oc1ccc(C(O)CN2CCN(C)CC2)cc1 (stereo not drawn) | 103 to 105 |
| COc1cc(C(=O)O)cc(OC)c1C(C)C | 164 to 166 |
| Cc1cc(=O)n2nc(N)sc2n1 | 335 to 337 |
| OC1CCCOc2cc(Br)ccc21 (stereo not drawn) | 73 to 75 |

| SMILES | melting point [°C] |
| --- | --- |
| O=S(=O)(Cl)c1cnc(Cl)c(Cl)c1 | 46 to 48 |
| Nc1[nH]nc(CCC2CCCCC2)c1-c1ccc(Br)cc1 | 168 to 170 |
| CC(=O)NC1(C(=O)O)CCC(C)CC1 (stereo not drawn) | 211 to 213 |
| N#Cc1ccc(-n2cnc(N)n2)cc1 | 238 to 240 |
| Nc1nc(N)nc(CCl)n1 | 221 to 223 |
| N#Cc1ccc(Cl)cc1[N+](=O)[O-] | 95 to 100 |
| O=C(O)C1CCN(c2ccc3nnnn3n2)CC1 | 199 to 201 |
| Cc1ccnc(NC2CCCCC2)c1 | 75 to 77 |
| O=C(O)CSc1nnnn1CC(F)(F)F | 135 to 137 |
| Ic1nnc[nH]1 | 196 to 198 |
| CNc1cc(NC)c([N+](=O)[O-])cc1F | 185 to 187 |
| NCCCCc1cn[nH]c1 | 72 to 74 |
| CSCCC(NC(N)=O)C(=O)O (stereo not drawn) | 141 to 143 |
| Nc1cc(-c2cccc(Br)c2)no1 | 122 to 124 |
| CC(C)(C)OC(=O)NCCC(=O)NN | 104 to 106 |
| Cc1ccccc1C1CNC(=O)C1 (stereo not drawn) | 115 to 117 |
| Oc1cccc(Oc2ccncn2)c1 | 102 to 104 |
| N#CCOc1ccc(CCl)cc1 | 63 to 65 |
| Cc1cc(-c2nc3cc(F)ccc3n2C)ccc1N | 174 to 176 |
| O=Cc1cnn(-c2ccc(Br)cc2)c1 | 124 to 126 |
| Cc1cc(N)n(-c2ncccn2)n1 | 203 to 205 |

The remaining lines, values ahead:

| melting point [°C] | SMILES |
| --- | --- |
| 230 to 232 | O=C(O)c1cc(S(=O)(=O)N2CCCCC2)ccc1Br |
| 133 to 135 | O=C(O)C1CCCN1C(=O)c1cncn1-c1ccccc1 (stereo not drawn) |
| 114 to 116 | Cc1nc2c(cnn2-c2cccc(Cl)c2)c(=O)[nH]1 |
| 87 to 91 | NC(=NO)c1ccccc1Cl |
| 74 to 76 | Ic1ccc(OCc2ccccn2)cc1 |
| 97 to 99 | NCc1ccc(-n2cnc3ccccc32)nc1 |
| 218 to 220 | O=C(O)C1CCCCN1Cc1ccc(F)cc1 (stereo not drawn) |
| 209 to 211 | COc1ccc2oc(C)c(C(=O)O)c2c1 |
| 291 to 293 | O=C(Cc1ccc(Br)cc1)Nc1cccc(C(=O)O)c1 |
| 189 to 191 | Nc1cc(NC(=O)c2ccccc2I)ccc1Cl |
| 115 to 117 | Cc1nc(C=O)c2ccccn12 |
| 265 to 267 | N#CCC(=O)c1c[nH]c2cc(F)ccc12 |
| 228 to 229 | Cn1c(=O)c2ccccc2n2c(CCl)nnc12 |
| 154 to 156 | NS(=O)(=O)Cc1cccnc1 |
| 149 to 151 | O=C(O)c1csc(Cc2ccc(F)cc2)n1 |
| 217 to 219 | O=C(Nc1cc(F)ccc1C(=O)O)c1cccc(Br)c1 |
| 229 to 231 | Cc1sc2ncn(CC(=O)O)c(=O)c2c1C |
| 159 to 161 | Nc1ccc(S(=O)(=O)Nc2ccccc2Cl)cc1 |
| 184 to 186 | O=c1[nH]c(-c2ccccc2)no1 |
| 83 to 85 | O=C(O)C1(S(=O)(=O)c2ccc(Cl)cc2)CCCC1 |
| 201 to 203 | Nc1ccc(CC(=O)N2CCN(c3ccccc3)CC2)cc1 |

| melting point [°C] | SMILES |
| --- | --- |
| 94 to 96 | O=C1OC(=O)c2cc(F)c(F)cc21 |
| 103 to 105 | CCOC(=O)c1[nH]c(C)c(C(=O)O)c1C |
| 57 to 59 | CCOC(=O)C(=O)c1nccn1Cc1ccccc1 |
| 61 to 63 | COCCOc1ccc2[nH]ccc2c1 |
| 103 to 105 | OCc1noc(-c2cccc(Cl)c2)n1 |
| 44 to 46 | CNCCOc1ccc(OCc2ccccc2)cc1 |
| 208 to 210 | O=C(O)c1cc(-c2ccc(Cl)c(Cl)c2)ns1 |
| 166 to 168 | O=C(O)Cc1coc2ccc3ccccc3c12 |
| 43 to 45 | O=C(CCl)NCCOc1cccc(C(F)(F)F)c1 |
| 160 to 162 | O=C1C=CC(=O)N1c1ccc(F)cc1 |
| 99 to 101 | Cn1ccnc1C(=O)c1ccccc1Cl |
| 156 to 158 | O=c1cc(I)cnn1Cc1ccccc1 |
| 289 to 291 | O=c1cnc2cc(F)c(F)cc2[nH]1 |
| 58 to 60 | O=Cc1cccc(OCCCC(=O)O)c1 |
| 73 to 75 | CCOC(=O)Nc1ccc(N)cc1 |
| 99 to 101 | CCc1ccccc1N1CC(C(=O)O)CC1=O (stereo not drawn) |
| 143 to 145 | Cc1ccc(S(=O)(=O)N2Cc3ccccc3CC2C(=O)O)cc1 (stereo not drawn) |
| 64 to 66 | OCCNc1ccccn1 |
| 366 to 368 | Cn1c(=O)[nH]c2ccc(C(=O)O)cc21 |
| 223 to 225 | Cc1cc(=O)c(C(=O)O)nn1-c1cccc(Cl)c1 |
| 229 to 231 | O=C(O)CN1C(=O)COc2ccccc21 |

| melting point [°C] | SMILES |
| --- | --- |
| 140 to 142 | CC(=O)c1sc(NCCCC(=O)O)nc1C |
| 218 to 220 | Cc1c(C(=O)O)cccc1S(N)(=O)=O |
| 151 to 153 | Cc1ccc(NC(=O)C(C)Cl)cc1S(=O)(=O)N1CCOCC1 (stereo not drawn) |
| 198 to 200 | CS(=O)(=O)Nc1ccc(C(=O)O)cc1 |
| 218 to 220 | Cn1cc(Nc2cccc(C(=O)O)c2)cn1 |
| 311 to 313 | O=C(O)c1c[nH]cc1C(=O)O |
| 177 to 179 | CN1C(=O)CNC1=O |
| 85 to 90 | COC(=O)C(=O)CC(=O)c1cc(OC)ccc1OC |
| 163 to 165 | Nc1ccc(CNC(=O)c2ccc(C(F)(F)F)cc2)cc1 |
| 242 to 244 | Cn1c(=O)[nH]c2ccccc2c1=O |
| 154 to 156 | CCc1n[nH]c(=O)c(C(=O)O)c1CC |
| 231 to 233 | O=C(O)CCn1c(=O)[nH]c(=O)c2ccccc21 |
| 289 to 291 | Oc1ccc(/C=C/c2ccc3ccccc3n2)cc1 |
| 135 to 137 | CC(C)(C)OC(=O)NC(CC(=O)O)c1ccccc1 (stereo not drawn) |
| 172 to 176 | O=C(O)c1ccc2c(c1)C(=O)N(Cc1ccco1)C2=O |
| 139 to 141 | CC(NC(=O)c1cc(F)ccc1N)c1ccc(C#N)cc1 (stereo not drawn) |
| 152 to 154 | NC(=O)c1cc(F)ccc1Br |
| 139 to 141 | CCn1nc(C)c(C(=O)O)c1C |
| 165 to 167 | CC(C)(C)c1cc(CCC(=O)O)cc(C(C)(C)C)c1O |
